What was measured:
rat urinary bladders = settings: anesthetized rats; repeated perfusions; cited from earlier work
[1] = test system: patients having bladder hyperactivity; experiment: 14-patient study: single intravesical RTX instillation; fill cystometry (MCC), urination diary; assay type: in vivo, human; settings: for Bladder Capacity, % Change / Bladder Capacity, Change from Pre-RTX: Bladder Capacity <200 mL; for Bladder Capacity, % Change / Bladder Capacity, Change from Pre-RTX / Bladder Capacity: n 7; for Mean Incontinent Episodes/day, % Change / Mean Incontinent Episodes/day, Difference from Pre-RTX / Mean Incontinent Episodes/day: n = 8; for Mean incontinent episodes: Pre-RTX 2.1; for Mean bladder capacity: Pre-RTX 182; for Bladder Capacity: patients with Bladder Capacity <200 mL, Pre-RTX 86; for Mean Incontinent Episodes/day: Pre-RTX 3.6
From the text: Clinical studies reported herein include the following: observations from the patient's urination diary and their overall assessment of bladder function, maximum cystometric capacity of the bladder, and daily urinary frequency and incontinence episodes. […] Useful and effective treatment is that which alleviates any of the symptoms associated with neurogenic urinary dysfunction.
Patients chosen for study were of either sex, between the ages of 30 and 75, and weighing between 60 kg and 110 kg. Patients were selected having bladder hyperactivity associated with spinal cord injury, multiple sclerosis, peripheral neuropathy, muscular dystrophy or bladder instability. Pregnant women were excluded from the study as were those exposed to any other investigational drug within 30 days of baseline, those exposed to drugs affecting bladder performance or detrusor function within 10 days of baseline, those with known chemical addiction, those with seizure activity or major psychiatric disorders, and those with clinically significant cardiovascular, renal or hepatic disease, upper respiratory disease, malignant disease or clinically significant abnormal clinical laboratory values. Patients taking anti-cholinergic drugs were generally excluded except in a rare instance at the discretion of the investigator, in which case the dosage of anti-cholinergic drug was not changed during the study. Patients previously treated with capsaicin were first monitored to insure a return to baseline parameters in the absence of capsaicin. Preliminary studies to determine RTX dosage efficacy were performed with patients who had previous experience with intravesical capsaicin administration for treatment of bladder hyperactivity. Once a dose range for the study was determined, both previously capsaicin-treated and -untreated patients were employed.
(§1) The molecular weight of RTX is 628.72 for the clinical studies described herein. A 10 μM stock solution, 6.3 μg/mL was prepared by dissolving 6.32 mg of 99.5% pure RTX in 1000 mL absolute ethanol. Solutions for therapeutic use were diluted from the ethanolic stock solution into sterile normal saline (0.9% w/v NaCl) or a saline-ethanol mixture such that the final solution was 10% (v/v) ethanol. Therapeutic efficacy was tested for RTX concentrations of 1 μM, 0.1 μM and 0.05 μM. […] Prior to administration, RTX solutions were sterilized by filtration.
Fill cystometry: A two-way 8 F urethral catheter was inserted in the bladder under clean conditions. The residual urine was emptied. Infusion of saline at body temperature was started at a constant speed of […]. Patients were asked to indicate the moment of first desire to void (FDV) and any other sensation. The infusion was stopped at compulsive desire to void and the infused volume taken as the maximal cystometric capacity (MCC). Bladder pressure at which MCC occurs was also recorded. A prophylactic antibiotic (ciprofloxacin, 500 mg every 8 hours) was given during the next 48 hours.
Ice-Water test: The patient was clean catheterized with a two-way urethral catheter. A volume of 50 ml of iced saline (or half of the MCC found in cystometry) was put in a catheter-irrigating syringe and injected into the bladder during a period of 20 seconds. Bladder pressure was constantly measured. The test was considered positive (abnormal) if an involuntary bladder contraction was recorded during the next 60 seconds.
RTX Instillation: An 18 or 20 F three-way Foley catheter was used. The balloon was inflated to 20 ml and maintained gently pulled against the bladder neck to reduce leakage of RTX.
Up to 100 mL RTX solution was introduced into an emptied bladder, retained in the bladder for 30 minutes, then the bladder was emptied and rinsed with normal saline. Prior to treatment, baseline measurements of MCC, micturition frequency and ice water test response made. […]
Patients 1, 2, 6, 7, 8 and 13 received 0.05 μM RTX. The rest received 0.1 μM RTX. […]

[2] = solubility and stability of RTX solutions; assay type: physicochemical
Method: as §1
However, the compounds are soluble in ethanol. Pure ethanol cannot be instilled into the bladder because it causes severe pain and irritation of the bladder mucosa. […] The foregoing solution, after filter sterilization, can be directly instilled into the urinary bladder. A typical instillation volume is 100 ml, although it is possible to instill somewhat larger or smaller volumes, as is understood in the art.

[3] = test system: vanilloid receptor-mediated release of tachykinins in the rat urinary bladder; settings: rat urinary bladder; cited from earlier work
bladder afferents = settings: rats; intravesicular 10-100 μmol; cited from earlier work
[4] = day 14, Frequency ≧ 10/day, n = 7
[5] = day 14, Incontinence > episode/day
[6] = day 14, intent-to-treat, n = 14
[7] = day 30, Frequency ≧ 10/day, n = 7
[8] = day 30, Incontinence > episode/day
[9] = day 30, intent-to-treat, n = 14
[10] = day 60, Frequency ≧ 10/day, n = 7
[11] = day 60, Incontinence > episode/day
[12] = day 60, intent-to-treat, n = 14
[13] = day 90, Frequency ≧ 10/day, n = 7
[14] = day 90, Incontinence > episode/day
[15] = day 90, intent-to-treat, n = 14
[16] = patients able to do spontaneous micturitions

C=C(C)[C@]12C[C@@H](C)[C@@]34O[C@](Cc5ccccc5)(O[C@@H]1[C@@H]3C=C(COC(=O)Cc1ccc(O)c(OC)c1)C[C@]1(O)C(=O)C(C)=C[C@@H]41)O2 [RTX, resiniferatoxin]
desensitizing effect of bladder perfusion (rat urinary bladders): desensitization was occurring
patients with meaningful effects, decreases in frequency, urge or wetness ([1]; 14-patient study): 71%
MCC ([1]; Patient #10 (spinal cord injury), 100 μM RTX instillation, day 14, Baseline MCC 80 ml): 500 mL
leaks on the worst day ([1]; Patient #10, 100 μM RTX instillation, before treatment incontinence episodes more than 7 times per day): 2-3 times per day
incontinence episodes, Case #11 ([1]; after RTX (0.1 μM), no improvement during placebo): substantially decreased incontinence episodes
symptoms evoked by RTX instillation ([1]; all patients, noted by a few patients during the first minutes of the treatment): itching or mild discomfort were the only symptoms evoked by RTX
incontinence episodes, Case #7 ([1]; between days 14 and 30 post-treatment, 0.05 μM, prior: at least once between catheterizations): only one incontinence episode
Bladder Capacity, % Change ([1]; day 14): +224%
Bladder Capacity, Change from Pre-RTX ([1]; day 14): +193 mLs
Mean Frequency/day, % Change [1, 4]: −34%
Mean Frequency/day, Change from Pre-RTX [1, 4]: -5.3 day⁻¹
Mean Incontinent Episodes/day, % Change [1, 5]: −44%
Mean Incontinent Episodes/day, Difference from Pre-RTX [1, 5]: -1.6 day⁻¹
Mean Frequency/day ([1]; day 14, intent-to-treat analysis, n = 14, Pre-RTX 9.1): 6.9 day⁻¹
Mean Frequency/day, Difference from pre-RTX [1, 6]: -2.2 day⁻¹
Mean bladder capacity, Difference from pre-RTX [1, 6]: 95 mL
Mean incontinent episodes, Difference from pre-RTX [1, 6]: −1.0
Mean incontinent episodes [1, 6]: 1.0
Mean bladder capacity [1, 6]: 277 mL
Bladder Capacity ([1]; day 14, single instillation 0.05 or 0.1 μM): 279 mLs
Mean Frequency/day ([1]; day 14, patients with Frequency ≧ 10/day, n = 7, Pre-RTX 15.7): 10.4 day⁻¹
Mean Incontinent Episodes/day ([1]; day 14, patients with Incontinence > episode/day): 2.0 day⁻¹
Bladder Capacity, % Change ([1]; day 30): +156%
Bladder Capacity, Change from Pre-RTX ([1]; day 30): +134 mLs
Mean Frequency/day, % Change [1, 7]: −28%
Mean Frequency/day, Change from Pre-RTX [1, 7]: -4.4 day⁻¹
Mean Frequency/day ([1]; day 30, Frequency ≧ 10/day, n = 7, Pre-RTX 15.7): 11.3 day⁻¹
Mean Incontinent Episodes/day, % Change [1, 8]: −64%
Mean Incontinent Episodes/day, Difference from Pre-RTX [1, 8]: -2.3 day⁻¹
Mean Incontinent Episodes/day [1, 8]: 1.3 day⁻¹
Mean Frequency/day, Difference from pre-RTX [1, 9]: -1.6 day⁻¹
Mean bladder capacity, Difference from pre-RTX [1, 9]: 64 mL
Mean incontinent episodes, Difference from pre-RTX [1, 9]: −1.4
Mean incontinent episodes [1, 9]: 0.7
Mean Frequency/day ([1]; day 30, intent-to-treat, n = 14, Pre-RTX 9.1): 7.5 day⁻¹
Mean bladder capacity [1, 9]: 247 mL
Bladder Capacity ([1]; day 30): 220 mLs
Bladder Capacity, % Change ([1]; day 60): +159%
Bladder Capacity, Change from Pre-RTX ([1]; day 60): +137 mLs
Mean Frequency/day, % Change [1, 10]: −34%
Mean Frequency/day, Change from Pre-RTX [1, 10]: -5.3 day⁻¹
Mean Frequency/day ([1]; day 60, Frequency ≧ 10/day, n = 7, Pre-RTX 15.7): 10.4 day⁻¹
Mean Incontinent Episodes/day, % Change [1, 11]: −67%
Mean Incontinent Episodes/day, Difference from Pre-RTX [1, 11]: -2.4 day⁻¹
Mean Incontinent Episodes/day [1, 11]: 1.2 day⁻¹
Mean Frequency/day, Difference from pre-RTX [1, 12]: -2.1 day⁻¹
Mean bladder capacity, Difference from pre-RTX [1, 12]: 45 mL
Mean incontinent episodes, Difference from pre-RTX [1, 12]: −1.7
Mean incontinent episodes [1, 12]: 0.4
Mean Frequency/day ([1]; day 60, intent-to-treat, n = 14, Pre-RTX 9.1): 7.0 day⁻¹
Mean bladder capacity [1, 12]: 228 mL
Bladder Capacity ([1]; day 60): 223 mLs
Bladder Capacity, Change from Pre-RTX ([1]; day 90): +191 mLs
Mean Frequency/day, % Change [1, 13]: −31%
Mean Frequency/day, Change from Pre-RTX [1, 13]: -4.9 day⁻¹
Mean Frequency/day ([1]; day 90, Frequency ≧ 10/day, n = 7, Pre-RTX 15.7): 10.8 day⁻¹
Mean Incontinent Episodes/day, % Change [1, 14]: −58%
Mean Incontinent Episodes/day, Difference from Pre-RTX [1, 14]: -2.1 day⁻¹
Mean Incontinent Episodes/day [1, 14]: 1.5 day⁻¹
Mean Frequency/day, Difference from pre-RTX [1, 15]: -2.6 day⁻¹
Mean bladder capacity, Difference from pre-RTX [1, 15]: 148 mL
Mean incontinent episodes, Difference from pre-RTX [1, 15]: −1.5
Mean incontinent episodes [1, 15]: 0.6
Mean Frequency/day ([1]; day 90, intent-to-treat, n = 14, Pre-RTX 9.1): 6.2 day⁻¹
Mean bladder capacity [1, 15]: 330 mL
Bladder Capacity ([1]; day 90): 277 mLs
positive benefit on incontinent episodes ([1]; eight evaluable patients with more than one incontinent episode/day): only one did not show a positive benefit
patients in whom bladder capacity (MCC) increased ([1]; out of the 14 patients): 11
duration of decreased frequency post-treatment [1, 16]: up to 60 days
improvement in MCC [1, 16]: All patients in the group but one (#1) showed clear improvement (increase) in MCC
reported improvement after RTX administration ([1]; patients requiring self-catheterization or supra-pubic maneuvers (#4, 5, 7, 8 and 11)): all but one (#4) reported improvement
full continence after RTX instillation ([1]; patients who were entirely incontinent (#3, 4, 6, 9, 12, 13 and 14)): five (#3, 6 and 9, 12 and 13) achieved full continence
duration of effect of a single instillation ([1]; single instillation): up to 6 months
stability of stock solution ([2]; absolute ethanol, stored in the dark, preferably refrigerated): stably maintained
solubility in water ([2]; completely aqueous medium, therapeutic dose): insufficiently soluble in water
stability of solutions ([2]; ethanolic stock and dilutions in saline, 10% (v/v) ethanol, 4° C., shielded from light): stable under refrigeration (4° C.) shielded from light
solubility after dilution of ethanolic solution into aqueous medium ([2]; normal saline, not greater than 20% (v/v) ethanol): RTX remains in solution
desensitization to repeated doses [3]: Desensitization to repeated doses of RTX was observed
potency relative to CAP [3]: 1000 times
desensitization of bladder afferents (bladder afferents): long-lasting desensitization of bladder afferents

Source: US20040039052A1, “Urinary incontinence therapy” (priority 1997, published 2004)
